Measured values published in patent publication US20110091473A1, “NOVEL ANTIBODY THERAPIES” (GENMAB A/S, priority 2007, published 2011).

Legend:
[1] = test system: CD20 on freshly isolated B cells; test: CD20/CD21 MFI ratio on freshly isolated B cells of atorvastatin-treated patients; assay type: in vivo, human; conditions: day 3 vs day 0 after single dose 80 mg atorvastatin; CD20 detected with the named mAb
Text: CD21 is a protein expressed by B cells. Its expression has been shown unaffected upon cholesterol depletion of a B cell line (Daudi) and for freshly isolated B cell enriched cell population of two independent donors (FIG. 26). Therefore, CD21 mAb binding is considered as an indicator for the amount of B cells present per staining. The MFI of CD20 mAb and CD21 mAb binding was identified by gating on viable cells in the lymphogate (FSC vs SSC), and subsequently on CD21+ cells when analyzing the MFI for the CD20 mAb. In order to be able to correlate the CD20 expression measured in between days CD20 mAb binding was quantitated relative to CD21 mAb binding within the same staining by calculating the ratio of MFI of CD20/CD21 mAb.
To determine CD20 and CD21 expression on B cells of hypercholesterolemic patients treated with atorvastatin PBMC were isolated out of whole blood drawn on day 0 (pre-treatment) and day 3 after treatment (as described in Example 7). Freshly isolated B cells were stained with different FITC-conjugated CD20 mAbs 2F2, 11B8, B1 (GlaxoSmithKline, Stevenage, United Kingdom) and PE-conjugated CD21 mAb (B-Ly4, BD Pharmingen, Franklin Lakes, N.J.) by 30 minutes incubation at room temperature in the dark. Cells were washed and mAb binding intensity (MFI) was analysed using a FACS Calibur (Becton Dickinson, Breda, The Netherlands).

WIL2-S cells = test: CD20 mAb-induced CDC of WIL2-S cells, PI/FACS analysis; assay type: cell-based, human; conditions: for CDC inducing capacity after cholesterol replenishment: WIL2-S cells, cholesterol replenished; for sensitivity for CDC induction: lovastatin-treated vs non-treated WIL2-S cells
CD20 on WIL2-S cells = biological target: T1, CD20 on WIL2-S cells (Homo sapiens, UniProt P11836); test: Binding of anti-CD20 mAb to WIL2-S cells with varied cholesterol content; conditions: for affinity in binding to cholesterol-depleted cells: WIL2-S cells depleted with lovastatin; for binding affinity after addition of cholesterol: cholesterol added to non-treated control WIL2-S cells; for binding affinity after replenishing of cholesterol: lovastatin-treated WIL2-S cells replenished with cholesterol
T1 construct: endogenous in cells; host or cells: WIL2-S cells
T1 sequence (P11836 1-297): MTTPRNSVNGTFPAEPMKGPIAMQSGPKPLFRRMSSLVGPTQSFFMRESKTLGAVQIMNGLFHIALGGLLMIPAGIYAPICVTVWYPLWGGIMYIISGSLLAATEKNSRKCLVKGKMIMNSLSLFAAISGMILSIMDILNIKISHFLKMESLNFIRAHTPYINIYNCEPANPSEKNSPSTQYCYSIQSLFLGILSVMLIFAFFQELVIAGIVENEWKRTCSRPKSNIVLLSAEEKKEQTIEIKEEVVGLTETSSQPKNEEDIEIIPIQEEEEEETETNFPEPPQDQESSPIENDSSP
Procedure: To reconstitute cholesterol into the cell membrane of the cells or increase the cholesterol content of the untreated cells, cholesterol (ICN Biomedicals, Zoetermeer, The Netherlands) was added to the test medium in a final concentration of 5 mg/ml 2 hours prior to FACS analysis. The cells were incubated for 30 minutes at 37° C. under gentle shaking conditions, after which the cells were washed twice in PBS and resuspended to 2×10^6 viable cells/ml. For comparison MβCD- and lovastatin-treated cell lines treated with only diluent were included.
To confirm that lovastatin treatment might result in a change in CD20 mAb binding affinity lovastatin-treated RAJI cells were stained with a concentration curve of CD20 mAb. […] After washing with FACS buffer, polyclonal rabbit-anti-human IgG-FITC (DAKO A/S, Denmark) was added for 30 minutes at 4° C. to detect the bound CD20 mAb. Cells were washed again, resuspended in FACS buffer and analyzed on a flow cytometer. The mean fluorescence intensity (MFI) was taken as measure for CD20 binding of the mAb.
Binding of anti-CD20 mAb to CD20 on various B cell lines could be restored upon replenishment of the cell membrane cholesterol content via addition of cholesterol (according to procedure as described in Example 4) to either MβCD- or lovastatin-treated cells, as measured by FACS analysis (FIG. 3). This was also observed for WIL2-S cells for which binding affinity of anti-CD20 mAbs to CD20 was determined after reconstitution of cholesterol of cholesterol-depleted cells using flow cytometry (FIG. 13).

Daudi cells = test: CDC of Daudi cells, MTT analysis; assay type: cell-based, human; conditions: increased concentrations of MβCD
Procedure: CDC was induced by incubating B cells with anti-CD20 mAb (as described in Example 2). After 1-hour incubation (3-(4,5-dimethylthiazol-2-yl)-2,5-diphenyltetrazolium bromide (MTT) solution (5 mg/ml, Roche, Diagnostics, Almere, The Netherlands) was added to each well (flat-bottom microtiter plates; Nunc, Rochester, N.Y.). The reaction was stopped after 4 hours of incubation at 37° C. by the addition of 100 μl of 20% SDS (Roche Diagnostics, Almere, The Netherlands). After overnight incubation at 37° C. the absorbance of the samples was measured at 550-525 nm using an Elisa reader (EL808x, Biotek instruments, Highland park, Vt., USA). Cytotoxicity was expressed as a relative viability of the stimulated cells compared to cells incubated with medium only and was calculated as follows: relative viability=[(Ae−Ab)/(Ac−Ab)]*100, where Ab is the background absorbance, Ae is experimental absorbance of the lysed cells and Ac is the absorbance of untreated cells. The viability was expressed as percentage survival in comparison to non-cholesterol depleted cells (control).

RAJI cells = test: Rituximab-induced ADCC of RAJI cells, 51Cr-release assay with PBMC; assay type: cell-based, human; conditions: for EC50 for rituximab-mediated ADCC: E:T 100:1
Procedure: In the antibody-dependent cellular cytotoxicity (ADCC) assay target B cells are labelled with radioactive chromium (^51Cr), and incubated with antibody and effector cells. Upon lysis the target cells release ^51Cr which can be measured by separation of the supernatant from the cells and quantification using a scintillation counter.
RAJI cells (obtained from ECACC, Porton Down, United Kingdom) served as target cells, and were cultured in RPMI 1640 supplemented with 10% heat-inactivated cosmic calf serum (CCS), 1 U/ml penicillin, 1 μg/ml streptomycin, and 4 mM L-glutamine (all from Invitrogen, Carlsbad, Calif.). RAJI cells were either non-treated or cholesterol-depleted using lovastatin (10 μM) as described in Example 3, and re-suspended in test medium to a concentration of 2×10^6 viable cells/ml.
RAJI cells were labeled with 20 μCi^51Cr (Amersham Biosciences, Uppsala, Sweden) for 2 hours. After extensive washing in medium, the cells were adjusted to 2×10^5 cells/ml. […] Assays were started by adding ^51Cr-labeled RAH cells (50 μl) giving a final volume of 200 >l. For isolated effector cells, containing 20% NK cells, an effector to target (E:T) ratio of 100:1 was used. After incubation (4 hours, 37° C.), assays were stopped by centrifugation, and ^51Cr release from triplicates was measured in counts per minute (cpm) in a scintillation counter. Percentage of cellular cytotoxicity was calculated using the following formula:
% specific lysis=(experimental cpm−basal cpm)/(maximal cpm−basal cpm)×100
with maximal ^51Cr release determined by adding TritonX-100 (5% final concentration) to target cells, and basal release measured in the absence of sensitizing antibodies and effector cells.

Row | Substance | average decrease in CD20/CD21 MFI ratio [1] | CDC inducing capacity after cholesterol replenishment (WIL2-S cells) | sensitivity for CDC induction (WIL2-S cells) | affinity in binding to cholesterol-depleted cells (CD20 on WIL2-S cells) | binding affinity after addition of cholesterol (CD20 on WIL2-S cells) | binding affinity after replenishing of cholesterol (CD20 on WIL2-S cells) | mAb-induced CDC (cell survival) (Daudi cells) | EC50 for rituximab-mediated ADCC (RAJI cells; control (non-treated) RAJI cells) | EC50 for rituximab-mediated ADCC (RAJI cells; lovastatin-treated (10 μM) RAJI cells) | increase of EC50 for rituximab-mediated ADCC (RAJI cells; lovastatin-treated vs control cells)
1 | 2F2: human anti-CD20 mAb, VH SEQ ID NO:1, VL SEQ ID NO:2, disclosed in WO 2004/035607 | 18% | fully restored | less sensitive | reduced affinity | further improved the binding affinity | restores affinity to the level of non-treated cells | diminished | – | – | –
2 | rituximab: anti-CD20 antibody Rituxan/MabThera, type I | – | fully restored | less sensitive | reduced affinity | further improved the binding affinity | restores affinity to the level of non-treated cells | – | 0.024 µg/mL | 0.082 µg/mL | ~4 fold
